The text below walks through data of article PMC11851430, “Workflow for E3 Ligase Ligand Validation for PROTAC Development” (ACS Chemical Biology, 2025).

Assay [1] concerns kinase protein levels in Jurkat cells. In words: TMT-labeled quantitative proteomics. To be noted: for kinase degradation / AURKA degradation in proteomic experiments: Jurkat cells, 1 μM, 6 h; for log2FC (compound/DMSO): Jurkat; for AURKA degradation in proteomic experiments: cutoff log2(fold change) ≥ 0.60. The assay is classed as cell-based, human. The method, then:
cultured in RPMI (Thermo: 11875093) supplemented as mentioned above. Cells were seeded in 6 well plates (Greiner: 657160) at a cell density of 1·10 6 cells/well and left at 37 °C and 5% […]
50 µl of SDS Lysis Buffer (2% SDS, 50 mM TRIS pH 8.5, 10 mM TCEP, 40 mM CAA) was added to each sample. Cells were transferred into low binding reaction tubes (Eppendorf:
0030108116) and samples were boiled for 15 minutes at 95 °C and sonicated for 2 minutes.
Methanol/Chloroform Precipitation. 200 µl of methanol and 50 µl of chloroform were added to each sample reaction tube and mixed via vortex. 150 µl of milliQ-H2O were added and samples were vortexed further. Samples were centrifuged for 5 minutes at 15000 g and the aqueous layer above the interphase was removed. 150 µl of methanol was added, samples were vortexed and centrifuged for 10 minutes at 15000 g to precipitate the pellet. The aforementioned wash procedure was repeated twice before transferring the pellet to a new low bind reaction tube in which it was allowed to dry for 5 minutes.
Dissolving the Protein Pellet and Protein Quantification. 50 µl of digestion buffer (8 M Urea, 50 mM TRIS pH 8) was added to each sample before vortexing and shaking at 750 rpm at room temperature for 10 minutes to solubilize the pellet. Protein quantification via PierceTM BCA Protein Assay Kit (Thermo: 23225) was carried out according to manufacturer’s protocol.
Protein Digestion. Samples were diluted 1:2 with 50 mM TRIS pH 8.5 to reach a final concentration of 4 M Urea. Lys-C (Promega: VA1170) was added at a 1:100 enzyme/substrate ratio. Samples were agitated at 550 rpm and 37 °C for 3 h. Samples were further diluted with 50 mM TRIS pH 8.5 to a final concentration of 1 M Urea and Trypsin (Promega: V5280) was added at a 1:100 enzyme/substrate ratio. Samples were agitated overnight at 550 rpm and 37 °C. The digestion was stopped the following day via addition of TFA to a final concentration […]
Solid Phase Extraction via C18 Cartridges. Sep-Pak C18 Cartridges (Waters: WAT054955) were used for solid phase extraction of digested peptides. For preconditioning of C18 cartridges, 1 mL of methanol was added to each column followed by 1 mL of solution B (0.1% formic acid, 80% acetonitrile) and 1 mL of solution A (0.1% formic acid, ddH2O) twice. Samples […]
were loaded to their respective columns and once samples had passed, columns were washed twice with solution A to remove unwanted components from the loading step. Elution of samples was carried out via introduction of 40% and 60% acetonitrile steps. Samples were dried and snap frozen in liquid nitrogen.
TMT-Labeling. Desalted peptides were dried and resuspended in TMT-labeling buffer (200 mM EPPS pH 8.2, 20% acetonitrile). 10 μg of peptides per condition were subjected to TMT labeling with 1:2.5 peptide TMT ratio (w/w) for 1 h at room temperature. The labeling reaction was quenched by addition of hydroxylamine to a final concentration of 0.5% and incubation at room temperature for 15 minutes. Successful TMT labeling was verified by mixing equimolar ratios of peptides and subjecting the mix to single shot LC-MS/MS analysis. For high pH reversed phase fractionation on a Dionex analytical HPLC, 50 µg of pooled and purified TMT labelled samples were resuspended in 10 mM ammonium-bicarbonate (ABC), 5% acetonitrile, […]
particle size; Phenomenex) using a multistep gradient from 100% solvent A (5% acetonitrile, 10 mM ABC in water) to 60% solvent B (90% acetonitrile, 10 mM ABC in water) over 70 minutes. Eluting peptides were collected every 45 seconds into a total of 96 fractions, which were cross-concatenated into 24 fractions and dried in a vacuum concentrator and resuspended in 3% acetonitrile with 0.1% TFA for LC-MS analysis.
Mass spectrometry data acquisition. Tryptic peptides were analyzed on an Orbitrap Lumos coupled to an easy nLC 1200 (ThermoFisher Scientific) using a 35 cm long, 75 µm ID fused-

Assay [2] has as its target T1, AURKA (Homo sapiens, UniProt O14965).
T1 sequence (O14965 1-403): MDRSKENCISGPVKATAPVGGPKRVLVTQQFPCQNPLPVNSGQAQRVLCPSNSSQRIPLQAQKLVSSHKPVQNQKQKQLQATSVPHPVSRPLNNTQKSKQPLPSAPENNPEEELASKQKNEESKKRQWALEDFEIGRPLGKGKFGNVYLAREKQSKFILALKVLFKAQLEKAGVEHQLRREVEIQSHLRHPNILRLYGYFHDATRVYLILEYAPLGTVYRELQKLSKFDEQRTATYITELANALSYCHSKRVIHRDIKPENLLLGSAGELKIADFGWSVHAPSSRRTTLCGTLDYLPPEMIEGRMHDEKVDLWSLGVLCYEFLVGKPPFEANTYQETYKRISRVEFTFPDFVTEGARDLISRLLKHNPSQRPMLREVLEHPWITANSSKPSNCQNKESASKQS
In words: NanoBRET target engagement assay, intact and permeabilized cells. As to conditions: mean of duplicates, ^a values estimated by extrapolation.
Method: Compounds were pipetted at various concentrations using an Echo acoustic dispenser (Labcyte), immediately followed by Tracer K10 (Promega, Tracer DB ID: T000008) for AAK1 and Aurora A and VHL Tracer (Promega, Tracer DB ID: T000019) for VHL, at an optimum KD concentration chosen from TracerDB ( tracerdb.org), respectively.
To measure the BRET signal, the NanoBRET® NanoGlo Substrate (Promega:
N1573) was added as per the manufacturer’s protocol, and filtered luminescence was measured on a PHERAstar plate reader (BMG Labtech) equipped with a luminescence filter pair (450 nm BP filter (donor) and 610 nm LP filter (acceptor)). For NanoBRET® measurement in permeabilized cells, 25 nL of digitonin (0.05 μg/μL) was pipetted into each well using an
After incubation, the BRET signals were measured by a PHERAstar plate reader (BMG Labtech) following the same procedure as intact NanoBRET® measurement. Competitive displacement data were then normalized to controls and were plotted using GraphPad Prism 9 software employing a normalized 3-parameter curve fit with the following equation:

The target in assay [3] is VHL (Homo sapiens, UniProt P40337). Nature of the assay: cell-based. As to conditions: permeabilized cells; read-out: VHL permeabilized (IC50±sd)/µM. Details: full-length, NanoLuc fusion (Promega N2741); species or system HEK293T; NanoBRET VHL tracer displacement in permeabilized cells, NanoLuc-VHL fusion.
Where [4] appears, read: protein UQCRHL;UQCRH, 1µM, set6.
[5] abbreviates: protein hCG_2014768;TMA7, 1µM, set6.
Setting [6] is: AURKA intact (IC50±sd)/μM, intact cells.
The mark [7] stands for this setting: AURKA permeabilized (IC50±sd)/μM, permeabilized cells.
Where [8] appears, read: protein TRBV12-3;TRBV12-4, 1 µM, set1.2.

Chain of VHL (P40337 whole entry, the tested form may be a part): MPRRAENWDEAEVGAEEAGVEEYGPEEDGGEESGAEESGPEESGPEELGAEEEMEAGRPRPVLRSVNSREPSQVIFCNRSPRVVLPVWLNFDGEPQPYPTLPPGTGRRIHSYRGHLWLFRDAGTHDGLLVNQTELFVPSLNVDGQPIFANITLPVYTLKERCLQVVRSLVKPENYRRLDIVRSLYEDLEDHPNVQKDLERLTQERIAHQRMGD

With `Cc1ncsc1-c1ccc(CNC(=O)[C@@H]2C[C@H](O)CN2C(=O)[C@@H](NC(=O)CCOCCOCCOCCN2CCN(c3cc(Nc4cc(C5CC5)[nH]n4)nc(Nc4ccc(CC#N)cc4)n3)CC2)C(C)(C)C)cc1` [4-a^neg], the kinase degradation result in assay [1] is “inactive”. Besides, the “log2FC (compound/DMSO)” value is on record as 0.1377 in assay [1] (protein NUDT4, 1µM, set6); -0.04256 in assay [1] (protein TRAV8-2, 1µM, set6); 0.1443 in assay [1] (setting [4]); -0.0883 in assay [1] (setting [5]).

In the case of `CC(C)(C)OC(=O)NCCOCCOCCOCCOCCC(=O)N1CCN(c2cc(Nc3cc(C4CC4)[nH]n3)nc(Nc3ccc(CC#N)cc3)n2)CC1` [4-L], the IC50 in assay [2] (setting [6]) was 1.92 ± 0.07 µM; in assay [2] (setting [7]), 0.63 ± 0.021 µM.

`CC(=O)N[C@H](C(=O)N1C[C@H](O)C[C@H]1C(=O)NCc1ccc(-c2scnc2C)cc1OCCOCCOCCOCCNC(=O)c1cc(Nc2cc(C3CC3)[nH]n2)nc(Nc2ccc(CC#N)cc2)n1)C(C)(C)C` [5-b]: the IC50 is around 18.5 µM in assay [2] (setting [6]), around 7.78 µM in assay [2] (setting [7]) and 0.972 ± 0.094 µM in assay [3].

For the compound `CC(=O)N[C@H](C(=O)N1C[C@H](O)C[C@H]1C(=O)NCc1ccc(-c2scnc2C)cc1OCCOCCOCCOCCOCCC(=O)N1CCN(c2ccc(Nc3ncc(Cl)c(Nc4ccccc4C(N)=O)n3)cc2)CC1)C(C)(C)C` [6-e], the IC50 in assay [2] (setting [6]) is around 2.2 µM; in assay [2] (setting [7]), 0.861 ± 0.251 µM; in assay [3] it was 1.4 ± 0.174 µM.

Regarding `Cc1ncsc1-c1ccc(CNC(=O)[C@@H]2C[C@@H](O)CN2C(=O)[C@@H](NC(=O)CCOCCOCCNC(=O)c2cc(Nc3cc(C4CC4)[nH]n3)nc(Nc3ccc(CC#N)cc3)n2)C(C)(C)C)cc1` [5-a], the IC50 was around 16.9 µM in assay [2] (setting [7]) and 1.22 ± 0.665 µM in assay [3]. Also, in assay [2] (intact cells), the “AURKA intact (IC50±sd)/μM” value is reported as “outside the assay window”. The “log2FC (compound/DMSO)” value was -0.04256 in assay [1] (protein NUDT4, 1 µM, set1.2); -0.1976 in assay [1] (protein PIGBOS1, 1 µM, set1.2); 0.04739 in assay [1] (protein TRAV8-2, 1 µM, set1.2); 0.03953 in assay [1] (setting [8]).

For `CCOC(=O)c1cc(Nc2cc(C3CC3)[nH]n2)nc(Nc2ccc(CC#N)cc2)n1` [compound 5], the results for the IC50 in assay [2] (setting [6]) and in assay [2] (setting [7]) were 0.577 ± 0.391 µM and 0.507 ± 0.079 µM, respectively.

For the compound `Cc1ncsc1-c1ccc(CNC(=O)[C@@H]2C[C@@H](O)CN2C(=O)[C@@H](NC(=O)CCOCCOCCOCCN2CCN(c3cc(Nc4cc(C5CC5)[nH]n4)nc(Nc4ccc(CC#N)cc4)n3)CC2)C(C)(C)C)cc1` [4-a], the IC50 is 3.68 ± 0.085 µM in assay [2] (setting [6]), 1.34 ± 0.271 µM in assay [2] (setting [7]) and 1.13 ± 0.132 µM in assay [3]. In assay [1], the kinase degradation result is given as “more kinases were degraded”. In assay [1], the “AURKA degradation in proteomic experiments” value is on record as “degradation levels close to the set cutoff”. Moreover, the “log2FC (compound/DMSO)” value in assay [1] (protein NUDT4, 1 µM, set1.2) is -0.1286; in assay [1] (protein PIGBOS1, 1 µM, set1.2), -0.1403; in assay [1] (protein TRAV8-2, 1 µM, set1.2) it was 0.1127; in assay [1] (setting [8]), 0.03022.

For `Cc1ncsc1-c1ccc(CNC(=O)[C@@H]2C[C@@H](O)CN2C(=O)[C@@H](NC(=O)CCCCCCN2CCN(c3ccc(Nc4ncc(Cl)c(Nc5ccccc5C(N)=O)n4)cc3)CC2)C(C)(C)C)cc1` [6-d], the IC50 in assay [2] (setting [6]) was 0.372 ± 0.014 µM; in assay [2] (setting [7]), 0.249 ± 0.011 µM; in assay [3], 5.83 ± 1.43 µM. Besides, the “log2FC (compound/DMSO)” value in assay [1] (protein NUDT4, 1µM, set6) was 0.05822; in assay [1] (protein TRAV8-2, 1µM, set6) it was -0.03607; in assay [1] (setting [4]) it was -0.2976; in assay [1] (setting [5]), -0.5377.

For the compound `Cc1ncsc1-c1ccc(CNC(=O)[C@@H]2C[C@@H](O)CN2C(=O)[C@@H](NC(=O)CCOCCOCCOCCOCCN2CCN(c3ccc(Nc4ncc(Cl)c(Nc5ccccc5C(N)=O)n4)cc3)CC2)C(C)(C)C)cc1` [6-b], the IC50 in assay [2] (setting [6]) is 0.416 ± 0.031 µM; in assay [2] (setting [7]), 0.254 ± 0.08 µM; in assay [3], 1.41 ± 0.083 µM. Moreover, the kinase degradation entry in assay [1] is “more kinases were degraded”. In addition, in assay [1], the “AURKA degradation in proteomic experiments” value is reported as “degradation levels close to the set cutoff”. Further, the “log2FC (compound/DMSO)” value is given as 0.1389 in assay [1] (protein NUDT4, 1 µM, set1.2); -0.2513 in assay [1] (protein PIGBOS1, 1 µM, set1.2); -0.01025 in assay [1] (protein TRAV8-2, 1 µM, set1.2); 0.04941 in assay [1] (setting [8]).

Consider `Cc1ncsc1-c1ccc(CNC(=O)[C@@H]2C[C@H](O)CN2C(=O)[C@@H](NC(=O)CCOCCOCCOCCOCCN2CCN(c3ccc(Nc4ncc(Cl)c(Nc5ccccc5C(N)=O)n4)cc3)CC2)C(C)(C)C)cc1` [6-b^neg], for which, in assay [1], the kinase degradation entry is “inactive”. For the same compound, the “log2FC (compound/DMSO)” value was -0.02087 in assay [1] (protein NUDT4, 1µM, set6); 0.09325 in assay [1] (protein TRAV8-2, 1µM, set6); 0.1465 in assay [1] (setting [4]); -0.2041 in assay [1] (setting [5]).

In the case of `CC(C)(C)OC(=O)NCCCOCCOCCOCCCNC(=O)c1cc(Nc2cc(C3CC3)[nH]n2)nc(Nc2ccc(CC#N)cc2)n1` [5-L], the IC50 was around 19.7 µM in assay [2] (setting [6]) and around 7.05 µM in assay [2] (setting [7]).
